# Patent publication US20230212116A1, “SARS-COV-2 MAIN PROTEASE INHIBITORS” (TEXAS A&M UNIVERSITY SYSTEM, priority 2020, published 2023)
# Molecular target: SARS-CoV-2 M^Pro (Severe acute respiratory syndrome coronavirus 2, UniProt P0DTD1)
# Assay: biochemical
# Assay type: biochemical
# Settings: not given
row,Structure (SMILES),IC50
1,"CC(C)C[C@H](NC(=O)OCc1ccccc1)C(=O)NN(CCC(N)=O)C(=O)OCC(F)(F)F [MPI46, 2,2,2-trifluoroethyl 1-(3-amino-3-oxopropyl)-2-(((benzyloxy)carbonyl)-L-leucyl)hydrazine-1-carboxylate]",> 10000 nM
2,"CC(C)C[C@H](NC(=O)OCc1ccccc1)C(=O)NN(CCC(N)=O)C(=O)Oc1ccc(F)cc1 [MPI47, 4-fluorophenyl 1-(3-amino-3-oxopropyl)-2-(((benzyloxy)carbonyl)-L-leucyl)hydrazine-1-carboxylate]",1040 nM
3,"C=CC(=O)N(CCC(N)=O)NC(=O)[C@H](CC(C)C)NC(=O)[C@@H](NC(=O)OCc1ccccc1)[C@@H](C)OC(C)(C)C [MPI50, benzyl ((2S,3R)-1-(((S)-1-(2-acryloyl-2-(3-amino-3-oxopropyl)hydrazineyl)-4-methyl-1-oxopentan-2-yl)amino)-3-(tert-butoxy)-1-oxobutan-2-yl)carbamate]",109 nM
4,"CC1(C)[C@@H]2[C@@H](C(=O)N[C@H](C=O)C[C@@H]3CCNC3=O)N(C(=O)[C@H](Cc3ccccc3)NC(=O)OCc3ccccc3)C[C@@H]21 [MPI94, benzyl ((S)-1-((1R,2S,5S)-6,6-dimethyl-2-(((S)-1-oxo-3-((S)-2-oxopyrrolidin-3-yl)propan-2-yl)carbamoyl)-3-azabicyclo[3.1.0]hexan-3-yl)-1-oxo-3-phenylpropan-2-yl)carbamate]",267 ± 44 nM

# Same assay, conditions: 20 nM enzyme (10 nM for MPI3), 10 μM substrate, 37° C., 30 min enzyme-inhibitor incubation
row,Structure (SMILES),Enzymatic IC50
1,"CC(C)[C@H](NC(=O)OCc1ccccc1)C(=O)N[C@@H](Cc1cccs1)C(=O)N[C@H](C=O)C[C@@H]1CCNC1=O [MPI13, Benzyl ((S)-3-methyl-1-oxo-1-(((S)-1-oxo-1-(((S)-1-oxo-3-((S)-2-oxopyrrolidin-3-yl)propan-2-yl)amino)-3-(thiophen-2-yl)propan-2-yl)amino)butan-2-yl)carbamate]",(insoluble)

# Same assay, conditions: read-out: Enzymatic IC50
row,Structure (SMILES),IC50
1,"C=CC(=O)N(Cc1cc(=O)[nH]c(=O)[nH]1)NC(=O)[C@H](CC(C)C)NC(=O)[C@@H](NC(=O)OCc1ccccc1)C(C)C [MPI35, benzyl ((S)-1-(((S)-1-(2-acryloyl-2-((2,6-dioxo-1,2,3,6-tetrahydropyrimidin-4-yl)methyl)hydrazineyl)-4-methyl-1-oxopentan-2-yl)amino)-3-methyl-1-oxobutan-2-yl)carbamate]",4280 ± 278 nM
2,"CCC(=O)N(CCC(N)=O)NC(=O)[C@H](CC(C)C)NC(=O)OCc1ccccc1 [MPI36, benzyl (S)-(1-(2-(3-amino-3-oxopropyl)-2-propionylhydrazineyl)-4-methyl-1-oxopentan-2-yl)carbamate]",> 10000 nM
3,"CC(C)C[C@H](NC(=O)OCc1ccccc1)C(=O)NN(CCC(N)=O)C(=O)CCl [MPI37, benzyl (S)-(1-(2-(3-amino-3-oxopropyl)-2-(2-chloroacetyl)hydrazineyl)-4-methyl-1-oxopentan-2-yl)carbamate]",64 nM
4,"C=CC(=O)N(CCC(N)=O)NC(=O)[C@H](CC(C)C)NC(=O)OCc1ccccc1 [MPI38, benzyl (S)-(1-(2-acryloyl-2-(3-amino-3-oxopropyl)hydrazineyl)-4-methyl-1-oxopentan-2-yl)carbamate]",640 nM
5,"CC(C)C[C@H](NC(=O)OCc1ccccc1)C(=O)NN(CCC(N)=O)C(=O)[C@@H](C)Cl [MPI39, benzyl ((S)-1-(2-(3-amino-3-oxopropyl)-2-((R)-2-chloropropanoyl)hydrazineyl)-4-methyl-1-oxopentan-2-yl)carbamate]",5038 ± 13 nM
6,"CC(C)C[C@H](NC(=O)OCc1ccccc1)C(=O)NN(CCC(N)=O)C(=O)[C@H](C)Cl [MPI40, benzyl ((S)-1-(2-(3-amino-3-oxopropyl)-2-((S)-2-chloropropanoyl)hydrazineyl)-4-methyl-1-oxopentan-2-yl)carbamate]",1620 ± 153 nM
7,"CC(C)C[C@H](NC(=O)OCc1ccccc1)C(=O)NN(CCC(N)=O)C(=O)c1cc([N+](=O)[O-])ccc1F [MPI41, benzyl (S)-(1-(2-(3-amino-3-oxopropyl)-2-(2-fluoro-5-nitrobenzoyl)hydrazineyl)-4-methyl-1-oxopentan-2-yl)carbamate]",39000 nM
8,"C=C(Cc1ccccc1)C(=O)N(CCC(N)=O)NC(=O)[C@H](CC(C)C)NC(=O)OCc1ccccc1 [MPI42, benzyl (S)-(1-(2-(3-amino-3-oxopropyl)-2-(2-benzylacryloyl)hydrazineyl)-4-methyl-1-oxopentan-2-yl)carbamate]",> 10000 nM
9,"CC(C)C[C@H](NC(=O)OCc1ccccc1)C(=O)NN(CCC(N)=O)C(=O)/C=C/CN(C)C [MPI43, benzyl (S,E)-(1-(2-(3-amino-3-oxopropyl)-2-(4-(dimethylamino)but-2-enoyl)hydrazineyl)-4-methyl-1-oxopentan-2-yl)carbamate]",> 10000 nM
10,"CC(C)C[C@H](NC(=O)OCc1ccccc1)C(=O)NN(CCC(N)=O)C(=O)COc1ccc([N+](=O)[O-])cc1 [MPI44, benzyl (S)-(1-(2-(3-amino-3-oxopropyl)-2-(2-(4-nitrophenoxy)acetyl)hydrazineyl)-4-methyl-1-oxopentan-2-yl)carbamate]",> 10000 nM
11,"CC(C)C[C@H](NC(=O)OCc1ccccc1)C(=O)NN(CCC(N)=O)C(=O)COc1ccc(F)cc1 [MPI45, benzyl (S)-(1-(2-(3-amino-3-oxopropyl)-2-(2-(4-fluorophenoxy)acetyl)hydrazineyl)-4-methyl-1-oxopentan-2-yl)carbamate]",> 10000 nM
12,"C=CC(=O)N(CCC(N)=O)NC(=O)[C@H](CC(C)C)NC(=O)[C@@H](NC(=O)OCc1ccccc1)C(C)C [MPI51, benzyl ((S)-1-(((S)-1-(2-acryloyl-2-(3-amino-3-oxopropyl)hydrazineyl)-4-methyl-1-oxopentan-2-yl)amino)-3-methyl-1-oxobutan-2-yl)carbamate]",36 nM
13,"C=CC(=O)N(CCC(N)=O)NC(=O)[C@H](CC1CCCCC1)NC(=O)[C@@H](NC(=O)OCc1ccccc1)[C@@H](C)OC(C)(C)C [MPI52, benzyl ((2S,3R)-1-(((S)-1-(2-acryloyl-2-(3-amino-3-oxopropyl)hydrazineyl)-3-cyclohexyl-1-oxopropan-2-yl)amino)-3-(tert-butoxy)-1-oxobutan-2-yl)carbamate]",61 ± 1.2 nM
14,"C[C@@H](OC(C)(C)C)[C@H](NC(=O)OCc1ccccc1)C(=O)N[C@@H](CC1CCCCC1)C(=O)NN(CCC(N)=O)C(=O)CCl [MPI53, benzyl ((2S,3R)-1-(((S)-1-(2-(3-amino-3-oxopropyl)-2-(2-chloroacetyl)hydrazineyl)-3-cyclohexyl-1-oxopropan-2-yl)amino)-3-(tert-butoxy)-1-oxobutan-2-yl)carbamate]",189 nM
15,"CC(C)(C)NC(=O)N[C@H](C(=O)N1C[C@H]2[C@@H]([C@H]1C(=O)N[C@@H](C[C@@H]1CCNC1=O)C(=O)C(=O)NCc1ccccc1)C2(C)C)C(C)(C)C [MPI63, (1R,2S,5S)-N-((S)-4-(benzylamino)-3,4-dioxo-1-((S)-2-oxopyrrolidin-3-yl)butan-2-yl)-3-((S)-2-(3-(tert-butyl)ureido)-3,3-dimethylbutanoyl)-6,6-dimethyl-3-azabicyclo[3.1.0]hexane-2-carboxamide]",103 ± 1.5 nM
16,"CC(C)[C@H](NC(=O)NC(C)(C)C)C(=O)N[C@@H](CC1CC1)C(=O)N[C@H](C=O)C[C@@H]1CCNC1=O [MPI64, (S)-2-(3-(tert-butyl)ureido)-N-((S)-3-cyclopropyl-1-oxo-1-(((S)-1-oxo-3-((S)-2-oxopyrrolidin-3-yl)propan-2-yl)amino)propan-2-yl)-3-methylbutanamide]",26.1 ± 1.4 nM
17,"C[C@@H](OC(C)(C)C)[C@H](NC(=O)OCc1ccccc1)C(=O)N[C@@H](CC1CCCCC1)C(=O)N[C@@H](C[C@@H]1CCNC1=O)C(O)S(=O)(=O)O (stereo partly drawn) [MPI65, sodium (5S,8S,11S)-5-((R)-1-(tert-butoxy)ethyl)-8-(cyclohexylmethyl)-12-hydroxy-3,6,9-trioxo-11-(((S)-2-oxopyrrolidin-3-yl)methyl)-1-phenyl-2-oxa-4,7,10-triazadodecane-12-sulfonate]",294 ± 15 nM
18,"CC(C)C[C@H](NC(=O)[C@@H](NC(=O)OCc1ccccc1)C(C)C)C(=O)N[C@@H](C[C@@H]1CCNC1=O)C(O)C#N (stereo partly drawn) [MPI66, benzyl ((2S)-1-(((2S)-1-(((2S)-1-cyano-1-hydroxy-3-((S)-2-oxopyrrolidin-3-yl)propan-2-yl)amino)-4-methyl-1-oxopentan-2-yl)amino)-3-methyl-1-oxobutan-2-yl)carbamate]",18.8 ± 0.8 nM
19,"C[C@@H](OC(C)(C)C)[C@H](NC(=O)NC(C)(C)C)C(=O)N1C[C@H]2[C@@H]([C@H]1C(=O)N[C@H](C=O)C[C@@H]1CCNC1=O)C2(C)C [MPI68, (1R,2S,5S)-3-(O-(tert-butyl)-N-(tert-butylcarbamoyl)-L-threonyl)-6,6-dimethyl-N-((S)-1-oxo-3-((S)-2-oxopyrrolidin-3-yl)propan-2-yl)-3-azabicyclo[3.1.0]hexane-2-carboxamide]",97 nM
20,"C=CC(=O)N(C[C@@H]1CCC(=O)N1)NC(=O)[C@@H]1[C@@H]2[C@H](CN1C(=O)[C@@H](NC(=O)NC(C)(C)C)[C@@H](C)OC(C)(C)C)C2(C)C [MPI69, 1-((2S,3R)-1-((1R,2S,5S)-2-(2-acryloyl-2-(((S)-5-oxopyrrolidin-2-yl)methyl)hydrazine-1-carbonyl)-6,6-dimethyl-3-azabicyclo[3.1.0]hexan-3-yl)-3-(tert-butoxy)-1-oxobutan-2-yl)-3-(tert-butyl)urea]",> 2000 nM
21,"C=CC(=O)N(CCC(N)=O)NC(=O)[C@@H]1[C@@H]2[C@H](CN1C(=O)[C@@H](NC(=O)NC(C)(C)C)[C@@H](C)OC(C)(C)C)C2(C)C [MPI70, 3-(1-acryloyl-2-((1R,2S,5S)-3-(O-(tert-butyl)-N-(tert-butylcarbamoyl)-L-threonyl)-6,6-dimethyl-3-azabicyclo[3.1.0]hexane-2-carbonyl)hydrazineyl)propanamide]",136 ± 17 nM
22,"C[C@@H](OC(C)(C)C)[C@H](NC(=O)OCc1ccccc1)C(=O)N[C@@H](CC1CCCCC1)C(=O)N[C@@H](C[C@@H]1CCNC1=O)C(=O)C(N)=O [MPI86, benzyl ((2S,3R)-1-(((S)-1-(((S)-4-amino-3,4-dioxo-1-((S)-2-oxopyrrolidin-3-yl)butan-2-yl)amino)-3-cyclohexyl-1-oxopropan-2-yl)amino)-3-(tert-butoxy)-1-oxobutan-2-yl)carbamate]",167 ± 14 nM
